According to patent US9394544B2, “Ameliorating oxidative stress in neurodegenerative disease via Nox1 targeting” (University of Central Florida Research Foundation, Inc., priority 2013, dated 2016):

Legend:
[1] = tested on: DA neurons in the rat SN; experiment: 8-oxo-dG immunostaining in the SN of 6-OHDA-treated rats; type: in vivo; conditions: striatal injection
Experimental: The experiments were carried out on rats, in accordance with the NIH Guide for the Care and Use of Laboratory Animals. All procedures were approved by the local Animal Care and Use Committee. Female Sprague Dawley (SD) rats (Charles River; 8-weeks-old at the time of the beginning of AAV expression or 6-OHDA treatment, 2 or 3 per cage) were maintained in a temperature/humidity-controlled environment under a 12 h light/dark cycle with free access to food and water. All rats were respectively allocated into […], Nox1 shRNA/AAV, T17N Rac1/AAV, and scramble (scb) shRNA/AAV or empty vector/AAV as control groups. Rats were deeply anesthetized (ketamine and xylazine mixture 30 mg/kg, i.p.) and placed in a rat stereotaxic apparatus, a site in the right substantia nigra (SN) [coordinate: anteroposterior (AP), −5.3 mm; mediolateral (ML), +2.0 mm; dorsoventral (DV), −5.8 mm] was selected to inject scb shRNA/AAV (n=8), Nox1 shRNA/AAV (n=16), T17N Rac1/AAV (n=16), and empty vector/AAV (n=28), respectively, according to the grouping. […]
Rats were deeply anesthetized with sodium pentobarbital (120 mg/kg) and transcardially perfused with saline containing 0.5% sodium nitrite and 10 U/ml heparin sulfate, followed by 4% cold formaldehyde generated from paraformaldehyde in 0.1 M PBS (pH 7.2). […] Mounted slices were evaluated on light microscope.

[2] = tested on: Nox1; experiment: Nox1 immunostaining in rat SN after striatal 6-OHDA; type: in vivo
Experimental: The experiments were carried out on rats, in accordance with the NIH Guide for the Care and Use of Laboratory Animals. All procedures were approved by the local Animal Care and Use Committee. Female Sprague Dawley (SD) rats (Charles River; 8-weeks-old at the time of the beginning of AAV expression or 6-OHDA treatment, 2 or 3 per cage) were maintained in a temperature/humidity-controlled environment under a 12 h light/dark cycle with free access to food and water. All rats were respectively allocated into […], Nox1 shRNA/AAV, T17N Rac1/AAV, and scramble (scb) shRNA/AAV or empty vector/AAV as control groups. […]
Free-floating sections (40 μm) were washed in 0.1 M PBS, incubated in 0.1 M PBS containing 5% normal donkey serum and 0.3% TritonX-100 for 1 h, and subsequently incubated overnight with primary antibodies (TH, 1:2,000; Nox1, 1:200; GFAP, 1:500; CD11b, 1:200) in 2% normal donkey serum in PBS at 4° C. and incubated in a 1:200 dilution of AlexaFluor conjugated donkey anti-rabbit (546) or donkey anti-mouse (488) antibodies for 1 h at room temperature, washed with PBS, incubated in TOTO-3 (1:1,000) in 0.1 M PBS for 5 min, and then mounted sequentially in glass slides using Vectashield. Mounted slices were evaluated for fluorescence under settings for 546, 488, and 660 nm emissions on a confocal microscope (Leica TCS SP5).

In the case of NCCc1cc(O)c(O)cc1O [6-OHDA, 6-hydroxydopamine], the “DNA oxidative damage (8-oxo-dG immunoreactivity in the nucleus) caused by toxin” value [1] is reported as “increased DNA oxidative damage”, the “Nox1 expression in the substantia nigra vs vehicle” value ([2]; 3 days after striatal injection) is reported as “significant increase” and the “TH-positive neurons showing Nox1 nuclear staining” value ([2]; rat SN after 6-OHDA administration) is reported as “About 75%”.
